Measurements from patent US20050220996A1, “Process for coating a pharmaceutical particle” (priority 2002, published 2005).

Details: magnetic stirrer, Tween 80 as wetting agent (FIG. 11)
Source text: The dissolution behavior of NaCl in water was studied by measuring conductivity as a function of time while stirring at a constant rate using a magnetic stirrer. To ensure complete wetting, Tween 80 was used as a wetting agent.

Substance: Sodium chloride [Uncoated]
- conductivity profile (dissolution in water): instantaneous conductivity profile
